According to paper PMC5136619, “Crystal structure of bacterial haem importer complex in the inward-facing conformation” (Nature Communications, 2016):

Biological target: T1, BhuUV-T (Burkholderia cenocepacia, UniProt B4EKB5)
T1 construct: gene hmuV; His8-BhuU full length with BhuV, plus haem-free BhuT 40-311 (GST cut off by PreScission) in ATPase assay; GFP-tagged BhuT in pull-down; heteropentamer; with Heme ABC transporter permease BhuU
Assay: His-tag pull-down, release of GFP-BhuT from immobilized BhuUV
Assay type: binding
Conditions: 1 mM AMP–PNP, 1 mM MgCl2, 0.15% DM, pH 7.5, on ice; nucleotide site of BhuV

T1 sequence (B4EKB3 entry or part of it): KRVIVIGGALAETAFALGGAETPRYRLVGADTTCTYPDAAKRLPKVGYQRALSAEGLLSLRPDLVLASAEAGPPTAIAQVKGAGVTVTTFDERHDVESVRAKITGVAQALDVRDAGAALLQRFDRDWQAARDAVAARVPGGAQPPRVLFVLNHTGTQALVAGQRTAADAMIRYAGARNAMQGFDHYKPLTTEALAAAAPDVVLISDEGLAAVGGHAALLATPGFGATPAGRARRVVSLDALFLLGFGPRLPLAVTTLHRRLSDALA
T1 sequence (B4EKB4 entry or part of it, further chain): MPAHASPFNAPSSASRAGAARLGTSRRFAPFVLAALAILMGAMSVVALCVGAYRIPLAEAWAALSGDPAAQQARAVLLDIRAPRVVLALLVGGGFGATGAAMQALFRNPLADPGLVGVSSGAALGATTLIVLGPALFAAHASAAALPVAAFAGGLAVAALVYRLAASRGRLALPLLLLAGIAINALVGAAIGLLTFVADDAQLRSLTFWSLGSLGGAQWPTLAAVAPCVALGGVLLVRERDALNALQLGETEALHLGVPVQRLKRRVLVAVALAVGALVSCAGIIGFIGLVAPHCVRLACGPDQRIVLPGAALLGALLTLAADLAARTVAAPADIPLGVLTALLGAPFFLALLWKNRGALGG
T1 sequence (B4EKB5 entry or part of it): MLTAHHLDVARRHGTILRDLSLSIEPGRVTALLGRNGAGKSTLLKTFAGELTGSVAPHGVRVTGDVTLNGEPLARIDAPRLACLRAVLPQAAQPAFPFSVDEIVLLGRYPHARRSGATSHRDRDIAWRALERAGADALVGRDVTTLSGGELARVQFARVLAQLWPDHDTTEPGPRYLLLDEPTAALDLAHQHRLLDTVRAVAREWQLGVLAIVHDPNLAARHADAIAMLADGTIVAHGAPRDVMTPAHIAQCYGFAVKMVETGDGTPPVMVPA

## Nc1ncnc2c1ncn2[C@@H]1O[C@H](COP(=O)(O)OP(=O)(O)NP(=O)(O)O)[C@@H](O)[C@H]1O [AMP–PNP]
  His-tag pull-down, release of GFP-BhuT from immobilized BhuUV: both ATP and AMP–PNP caused the dissociation of GFP-BhuT from BhuUV
